ChEMBL document CHEMBL1201862, “PubChem BioAssay data set” (2004)
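Tested at 5 concentrations; 48 h exposure; 96-well plates; endpoints linearly interpolated, else capped at highest concentration. The concentration for 50% growth inhibition is given as GI50.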 The source made the active and inactive calls. Cut-off read from the data, not from the text of the source: active = GI50 up to about 1.1 µM and inactive = higher.

Assays:
Assay in all cases: NCI anticancer screen, dose series, 48 h
[1] = test system: SW-620
[2] = test system: M14
[3] = test system: RXF 393
[4] = test system: SK-MEL-2
[5] = test system: UACC-62
[6] = test system: SNB-19
[7] = test system: IGROV-1
[8] = test system: UO-31
[9] = test system: HL-60
[10] = test system: NCI/ADR-RES
[11] = test system: HCT-15
[12] = test system: TK-10
[13] = test system: CAKI-1
[14] = test system: T47D
[15] = test system: MDA-MB-435
[16] = test system: HCC 2998
[17] = test system: HOP-62
[18] = test system: PC-3
[19] = test system: NCI-H226

| SMILES | GI50 [1] | GI50 [2] | GI50 [3] | GI50 [4] | GI50 [5] | GI50 [6] | GI50 [7] | GI50 [8] | GI50 [9] | GI50 [10] | GI50 [11] [µM] | GI50 [12] | GI50 [13] | GI50 [14] | GI50 [15] | GI50 [16] | GI50 [17] | GI50 [18] | GI50 [19] |
| --- | --- | --- | --- | --- | --- | --- | --- | --- | --- | --- | --- | --- | --- | --- | --- | --- | --- | --- | --- |
| COc1cc2c(cc1OC)C1CN3CCCC3C(O)C1c1cc(OC)c(OC)cc1-2 (centres undefined) | > 100 µM (inactive) | > 100 µM (inactive) | 82.8 µM (inactive) | > 100 µM (inactive) | > 100 µM (inactive) | > 100 µM (inactive) | > 100 µM (inactive) | > 100 µM (inactive) | > 100 µM (inactive) | > 100 µM (inactive) | > 100 | > 100 µM (inactive) | > 100 µM (inactive) | 15.3 µM (inactive) | > 100 µM (inactive) | > 100 µM (inactive) | 40.2 µM (inactive) |  |  |
| COC(=O)CCCC(=O)NC1=C(NCc2ccccc2)C(=O)c2ccccc2C1=O | 60.8 µM (inactive) | 29.6 µM (inactive) |  | 87.5 µM (inactive) | 29.2 µM (inactive) | > 100 µM (inactive) | 44.2 µM (inactive) | > 100 µM (inactive) | 29 µM (inactive) | 27.3 µM (inactive) | 52.4 | > 100 µM (inactive) | > 100 µM (inactive) | 59.3 µM (inactive) | 42.4 µM (inactive) | > 100 µM (inactive) |  |  |  |
| CC(C)(C)c1ccc(O)c(C[N+](C)(C)C)c1 | > 100 µM (inactive) | > 100 µM (inactive) | > 100 µM (inactive) | > 100 µM (inactive) | > 100 µM (inactive) | > 100 µM (inactive) | > 100 µM (inactive) | > 100 µM (inactive) |  | > 100 µM (inactive) | > 100 | > 100 µM (inactive) | > 100 µM (inactive) | > 100 µM (inactive) | > 100 µM (inactive) |  | > 100 µM (inactive) | > 100 µM (inactive) |  |
| O=C1C=Cc2cscc21 | 33.3 µM (inactive) | 26.4 µM (inactive) | 16.6 µM (inactive) | 79.1 µM (inactive) | > 100 µM (inactive) | 78.2 µM (inactive) | 32.4 µM (inactive) | 26.2 µM (inactive) | 29 µM (inactive) | 28.8 µM (inactive) | 22.7 | 42.5 µM (inactive) | 27.4 µM (inactive) | 27.5 µM (inactive) | 48.5 µM (inactive) |  | > 100 µM (inactive) | 42 µM (inactive) |  |
| COc1cc(/C=C2\CCC(C)C3=C2NC(=S)NC3c2cc(OC)c(OC)c(OC)c2)cc(OC)c1OC (centres undefined) | 96.2 µM (inactive) | 60.3 µM (inactive) | 34.1 µM (inactive) | > 100 µM (inactive) | 40 µM (inactive) | 51.8 µM (inactive) | 40.3 µM (inactive) | 15.8 µM (inactive) | 12.5 µM (inactive) |  | 47.4 | 70.6 µM (inactive) | 81.5 µM (inactive) |  | 38.2 µM (inactive) |  | 70.6 µM (inactive) | 37.7 µM (inactive) |  |
| C/C(=N\Nc1nc2ccccc2[nH]1)c1cc2ccccc2cn1 | < 0.012 µM (active) | < 0.01 µM (active) | 0.208 µM (active) | 0.508 µM (active) | 0.0531 µM (active) | 0.277 µM (active) | < 0.0175 µM (active) | 0.0115 µM (active) | < 0.01 µM (active) | 0.0284 µM (active) | < 0.0106 | 0.122 µM (active) | < 0.01 µM (active) | < 0.0352 µM (active) | 0.182 µM (active) | 1.45 µM (inactive) | 1.11 µM (active) |  | 0.0382 µM (active) |
| C=C1C[C@H]2C=Nc3cc(OCCCOc4cc5c(cc4OC)C(=O)N4CC(=C)C[C@H]4C=N5)c(OC)cc3C(=O)N2C1 [SJG-136] | 0.0123 µM (active) |  | < 0.0107 µM (active) |  | < 0.01 µM (active) | < 0.01 µM (active) | < 0.01 µM (active) | 0.0208 µM (active) | < 0.01 µM (active) |  | 0.124 | 0.0316 µM (active) | < 0.01 µM (active) | < 0.01 µM (active) |  | 0.0126 µM (active) | 0.0106 µM (active) |  | 0.0122 µM (active) |
| N#Cc1c(-c2ccccc2)cc(Nc2cccc(C(F)(F)F)c2)n2c1nc1ccccc12 | 3.05 µM (inactive) |  | 1.99 µM (inactive) |  |  |  |  |  |  | 1.33 µM (inactive) | 1.38 | 2.56 µM (inactive) | 1.91 µM (inactive) | 0.764 µM (active) | 2.01 µM (inactive) |  | 1.77 µM (inactive) |  | 0.687 µM (active) |
| CC(=O)c1cccc(NC(=O)/C(=N\NC(=S)NN)C2C(=O)Nc3ccccc3[S+]2[O-])c1 (centres undefined) | > 100 µM (inactive) | > 100 µM (inactive) | > 100 µM (inactive) | > 100 µM (inactive) | > 100 µM (inactive) | > 100 µM (inactive) | > 100 µM (inactive) | > 100 µM (inactive) | > 100 µM (inactive) | > 100 µM (inactive) |  | > 100 µM (inactive) | > 100 µM (inactive) | > 100 µM (inactive) | > 100 µM (inactive) |  | > 100 µM (inactive) | > 100 µM (inactive) | > 100 µM (inactive) |
